Measured values from US5102873A (priority 1989, dated 1992).
Values after ≈ are worked out from the molar mass of the structure shown. Values joined by “and” are separate entries in the source; they are usually repeats but may differ in a detail not shown here. Equal entries are not always repeated.

What was measured:
[1] = Cytotoxicity of test compound to Vero host cells (minimum toxic concentration); conditions: monkey, MTC (minimum toxic concentration), footnote: lowest concentration giving 50% reduction in percent survival of viable host cells
vaccinia virus = experiment: microbe, parasite or virus in culture; format: cell-based; conditions: for IC50: Orthopoxvirus vaccinia, Vero, read-out: ID50 (inhibitory dose 50; 50% reduction in virus replication), vaccinia virus in Vero cells, called MIC50; for TI (therapeutic index, MTC/ID50) / Virus Rating (VR): Vero cells; for TI (therapeutic index, MTC/ID50): TI>50 indicates a useful compound; for Virus Rating (VR): VR >=1.0 significant, 0.5-0.9 marginal, <0.5 inactive, repeat lines are repeat tests

Structure (SMILES) | MCC [1] [µg/mL] | IC50 (vaccinia virus) [mg/L] | TI (therapeutic index, MTC/ID50) (vaccinia virus) | Virus Rating (VR) (vaccinia virus)
Nc1ncnc2c1ncn2[C@@H]1O[C@H](CO)[C@@H](O)[C@@H]1O [AraA, 9-β-D-arabinofuranosyladenine, reference compound] | > 320 | 2 (≈ 7.48 µM) | 13.3 | 1.0
Nc1c2ncn([C@@H]3O[C@H](CO)[C@@H](O)[C@H]3O)c2nc[n+]1[O-] [Compound 1a, Adenosine-N^1 -oxide] | 100 | 0.32 (≈ 1.13 µM) | 312 | > 2.4
Nc1c2ncn([C@H]3C[C@H](O)[C@@H](CO)O3)c2nc[n+]1[O-] [Compound 1b, 2'-Deoxyadenosine-N^1-oxide] | > 320 | 3.06 (≈ 11.5 µM) | 104 | > 1.7
CNc1c2ncn([C@@H]3O[C@H](CO)[C@@H](O)[C@H]3O)c2nc[n+]1[O-] [Compound 1c, 6-Methylamino-9-β-D-ribofuranosylpurine-N^1-oxide] | 320 | 0.45 (≈ 1.51 µM) | 708 | > 2.4
Cc1cccc(COn2cnc3c(ncn3[C@@H]3O[C@H](CO)[C@@H](O)[C@H]3O)c2=N)c1.[O-][Cl+3]([O-])([O-])O [Compound 2a, 1-(3-Methylbenzyloxy)adenosine, perchloric acid salt] | > 320 | 0.41 | 781 and 487 | > 2.4
Cc1cc(C)cc(COn2cnc3c(ncn3[C@@H]3O[C@H](CO)[C@@H](O)[C@H]3O)c2=N)c1.[O-][Cl+3]([O-])([O-])O [Compound 2aa, 1-(3,5-Dimethylbenzyloxy)adenosine, perchloric acid salt] | 320 | 0.45 | 710 and > 1000 | 
Cc1ccc(COn2cnc3c(ncn3[C@@H]3O[C@H](CO)[C@@H](O)[C@H]3O)c2=N)cc1.[O-][Cl+3]([O-])([O-])O [Compound 2b, 1-(4-Methylbenzyloxy)adenosine, perchloric acid salt] | 100 | 0.11 | 917 | 2.4
Cc1ccc(C)c(COn2cnc3c(ncn3[C@@H]3O[C@H](CO)[C@@H](O)[C@H]3O)c2=N)c1.[O-][Cl+3]([O-])([O-])O [Compound 2bb, 1-(2,5-Dimethylbenzyloxy)adenosine, perchloric acid salt] | 320 | 0.38 | > 850 and > 1350 | 
Cc1ccccc1COn1cnc2c(ncn2[C@@H]2O[C@H](CO)[C@@H](O)[C@H]2O)c1=N.[O-][Cl+3]([O-])([O-])O [Compound 2c, 1-(2-Methylbenzyloxy)adenosine, perchloric acid salt] | > 320 | 0.32 | 1000 | > 2.4
Cc1ccc(COn2cnc3c(ncn3[C@@H]3O[C@H](CO)[C@@H](O)[C@H]3O)c2=N)c(C)c1.[O-][Cl+3]([O-])([O-])O [Compound 2cc, 1-(2,4-Dimethylbenzyloxy)adenosine, perchloric acid salt] | 320 | 0.08 | 4110 and 3890 | 2.9
COc1ccc(COn2cnc3c(ncn3[C@@H]3O[C@H](CO)[C@@H](O)[C@H]3O)c2=N)cc1.[O-][Cl+3]([O-])([O-])O [Compound 2d, 1-(4-Methoxybenzyloxy)adenosine, perchloric acid salt] |  | 0.01 |  | 
N=c1c2ncn([C@@H]3O[C@H](CO)[C@@H](O)[C@H]3O)c2ncn1OCc1ccccc1.[O-][Cl+3]([O-])([O-])O [Compound 2dd, 1-Benzyloxyadenosine, perchloric acid salt] | 320 | 1.77 | 180 | > 2.0
COc1cccc(COn2cnc3c(ncn3[C@@H]3O[C@H](CO)[C@@H](O)[C@H]3O)c2=N)c1.[O-][Cl+3]([O-])([O-])O [Compound 2e, 1-(3-Methoxybenzyloxy)adenosine, perchloric acid salt] | > 320 | 0.2 | 1609 and 1075 | 
CC(On1cnc2c(ncn2[C@@H]2O[C@H](CO)[C@@H](O)[C@H]2O)c1=N)c1ccccc1.[O-][Cl+3]([O-])([O-])O (some centres unmarked) [Compound 2f, 1-(1-Phenylethyloxy)adenosine, perchloric acid salt] |  | < 0.32 |  | 
N=c1c2ncn([C@@H]3O[C@H](CO)[C@@H](O)[C@H]3O)c2ncn1OCc1cc(F)cc(F)c1.[O-][Cl+3]([O-])([O-])O [Compound 2ff, 1-(3,5-Difluorobenzyloxy)adenosine, perchloric acid salt] | > 320 | 1.55 | 205 and 175 | > 2.0
N=c1c2ncn([C@@H]3O[C@H](CO)[C@@H](O)[C@H]3O)c2ncn1OCc1ccccc1F.[O-][Cl+3]([O-])([O-])O [Compound 2g, 1-(2-Fluorobenzyloxy)adenosine, perchloric acid salt] | > 320 | 4.97 | 64 and 34 | 
N=c1c2ncn([C@@H]3O[C@H](CO)[C@@H](O)[C@H]3O)c2ncn1OCc1cc(F)ccc1F.[O-][Cl+3]([O-])([O-])O [Compound 2gg, 1-(2,5-Difluorobenzyloxy)adenosine, perchloric acid salt] | > 320 | 1.77 | 180 and 115 | 
N=c1c2ncn([C@@H]3O[C@H](CO)[C@@H](O)[C@H]3O)c2ncn1OCc1cccc(F)c1.[O-][Cl+3]([O-])([O-])O [Compound 2h, 1-(3-Fluorobenzyloxy)adenosine, perchloric acid salt] | > 320 | 0.98 | 325 and 285 | 
N=c1c2ncn([C@@H]3O[C@H](CO)[C@@H](O)[C@H]3O)c2ncn1OCc1ccc(F)cc1.[O-][Cl+3]([O-])([O-])O [Compound 2i, 1-(4-Fluorobenzyloxy)adenosine, perchloric acid salt] | > 320 | 2.41 | 133 and 160 | 
N=c1c2ncn([C@@H]3O[C@H](CO)[C@@H](O)[C@H]3O)c2ncn1OCc1ccc(F)cc1F.[O-][Cl+3]([O-])([O-])O [Compound 2j, 1-(2,4-Difluorobenzyloxy)adenosine, perchloric acid salt] | > 320 | 0.31 | 1029 | > 2.4
N=c1c2ncn([C@@H]3O[C@H](CO)[C@@H](O)[C@H]3O)c2ncn1OCc1ccc(F)c(F)c1.[O-][Cl+3]([O-])([O-])O [Compound 2k, 1-(3,4-Difluorobenzyloxy)adenosine, perchloric acid salt] | > 320 | 0.48 | 671 and 434 | > 2.3
N=c1c2ncn([C@@H]3O[C@H](CO)[C@@H](O)[C@H]3O)c2ncn1OCc1ccccc1C(F)(F)F.[O-][Cl+3]([O-])([O-])O [Compound 2l, 1-(2-Trifluoromethylbenzyloxy)adenosine, perchloric acid salt] | > 320 | 0.82 | 391 | > 2.2
N=c1c2ncn([C@@H]3O[C@H](CO)[C@@H](O)[C@H]3O)c2ncn1OCc1cc(C(F)(F)F)cc(C(F)(F)F)c1.[O-][Cl+3]([O-])([O-])O [Compound 2m, 1-[3,5-Bis(trifluoromethyl)benzyloxy]adenosine, perchloric acid salt] | > 320 | 1.03 | 311 and 314 | 
N=c1c2ncn([C@@H]3O[C@H](CO)[C@@H](O)[C@H]3O)c2ncn1OCc1ccc(C(F)(F)F)cc1C(F)(F)F.[O-][Cl+3]([O-])([O-])O [Compound 2n, 1-[2,4-Bis(trifluoromethyl)benzyloxy]adenosine, perchloric acid salt] | > 320 | 1.45 | 221 and 181 | 
N=c1c2ncn([C@@H]3O[C@H](CO)[C@@H](O)[C@H]3O)c2ncn1OCc1ccccc1Cl.[O-][Cl+3]([O-])([O-])O [Compound 2o, 1-(2-Chlorobenzyloxy)adenosine, perchloric acid salt] | > 320 | 1.01 | 318 and 251 | 
N=c1c2ncn([C@@H]3O[C@H](CO)[C@@H](O)[C@H]3O)c2ncn1OCc1cccc(Cl)c1.[O-][Cl+3]([O-])([O-])O [Compound 2p, 1-(3-Chlorobenzyloxy)adenosine, perchloric acid salt] | > 320 | 1.08 | 295 and 193 | 
N=c1c2ncn([C@@H]3O[C@H](CO)[C@@H](O)[C@H]3O)c2ncn1OCc1ccccc1[N+](=O)[O-].[O-][Cl+3]([O-])([O-])O [Compound 2q, 1-(2-Nitrobenzyloxy)adenosine, perchloric acid salt] | > 320 | 1.03 | 310 and 181 | 
N=c1c2ncn([C@@H]3O[C@H](CO)[C@@H](O)[C@H]3O)c2ncn1OCc1cccc([N+](=O)[O-])c1.[O-][Cl+3]([O-])([O-])O [Compound 2r, 1-(3-Nitrobenzyloxy)adenosine, perchloric acid salt] | > 320 | 10 | 32 and 30 | 
N=c1c2ncn([C@@H]3O[C@H](CO)[C@@H](O)[C@H]3O)c2ncn1OCc1ccc([N+](=O)[O-])cc1.[O-][Cl+3]([O-])([O-])O [Compound 2s, 1-(4-Nitrobenzyloxy)adenosine, perchloric acid salt] | > 320 | 2.34 | 137 and 89 | > 1.7
N#Cc1ccccc1COn1cnc2c(ncn2[C@@H]2O[C@H](CO)[C@@H](O)[C@H]2O)c1=N.[O-][Cl+3]([O-])([O-])O [Compound 2w, 1-(2-Cyanobenzyloxy)adenosine, perchloric acid salt] | > 320 |  |  | 
